Measured values from PubChem BioAssay (NCI).
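Cells were grown in 96-well plates and exposed to each compound for 48 hours at five concentrations; endpoints were interpolated linearly between bracketing concentrations, or set to the highest concentration if not reached. GI50 marks 50% less growth. Definition used: TGI = concentration required for complete inhibition of growth.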

Columns and labels:
Assay in all cases: NCI anticancer screen, dose series, 48 h
[1] = tested on: DU-145 prostate
[2] = tested on: K-562 leukemia
[3] = tested on: EKVX NSCLC
[4] = tested on: MDA-MB-435
[5] = tested on: SK-MEL-2 melanoma
[6] = tested on: HOP-92 NSCLC
[7] = tested on: A498 renal
[8] = tested on: 786-0 renal
[9] = tested on: HS 578T breast
[10] = tested on: SK-MEL-28 melanoma
[11] = tested on: OVCAR-5 ovarian
[12] = tested on: HCC-2998 colon
[13] = tested on: ACHN renal
[14] = tested on: MALME-3M melanoma
[15] = tested on: BT-549 breast
[16] = tested on: HT29 colon
[17] = tested on: NCI-H226 lung
[18] = tested on: MDA-MB-231 breast
[19] = tested on: COLO 205 colon
[20] = tested on: OVCAR-3 ovarian
[21] = tested on: NCI-H23 lung
[22] = tested on: HCT-116 colon
[23] = tested on: MOLT-4 leukemia
[24] = tested on: NCI-H460 lung
[25] = tested on: SF-268 CNS
[26] = tested on: SNB-75 CNS
[27] = tested on: HOP-62 NSCLC
[28] = tested on: OVCAR-4 ovarian
[29] = tested on: CCRF-CEM leukemia
[30] = tested on: RPMI-8226 leukemia
[31] = tested on: SF-539 CNS
[32] = tested on: NCI-H522 lung
[33] = tested on: SNB-19 CNS
[34] = tested on: NCI/ADR-RES ovarian
[35] = tested on: SF-295 CNS
[36] = tested on: SW-620 colon
[37] = tested on: UACC-62 melanoma
[38] = tested on: IGROV1 ovarian
[39] = tested on: OVCAR-8 ovarian
[40] = tested on: UO-31 renal
[41] = tested on: UACC-257 melanoma
[42] = tested on: A549 NSCLC
[43] = tested on: M14 melanoma
[44] = tested on: CAKI-1 renal
[45] = tested on: PC-3 prostate
[46] = tested on: HCT-15 colon
[47] = tested on: KM12 colon
[48] = tested on: T-47D breast
[49] = tested on: LOX IMVI melanoma
[50] = tested on: TK-10 renal
[51] = tested on: RXF 393 renal
[52] = tested on: SK-MEL-5 melanoma
[53] = tested on: SR leukemia
[54] = tested on: U251 CNS
[55] = tested on: MCF7 breast
[56] = tested on: SN12C renal
[57] = tested on: SK-OV-3 ovarian
[58] = tested on: HL-60(TB) leukemia

N#Cc1ccc2[nH]cc(Cc3c[nH]c4ccc(C#N)cc34)c2c1
GI50 [1]: 16.3 µM
TGI [1]: > 50 µM
GI50 [2]: 14.7 µM
TGI [2]: > 50 µM
GI50 [3]: 14.9 µM
TGI [3]: > 50 µM
GI50 [4]: 11.4 µM
TGI [4]: 24 µM
GI50 [5]: 9.63 µM
TGI [5]: 21 µM
GI50 [6]: 8.52 µM
TGI [6]: 22.8 µM
GI50 [7]: 10.1 µM
TGI [7]: 22 µM
GI50 [8]: 13.4 µM
TGI [8]: 38 µM
GI50 [9]: 11.4 µM
TGI [9]: 25.7 µM
GI50 [10]: 17.4 µM
TGI [10]: > 50 µM
GI50 [11]: 12.3 µM
TGI [11]: 29.8 µM
GI50 [12]: 9.77 µM
TGI [12]: 18.6 µM
GI50 [13]: 12.2 µM
TGI [13]: 35.5 µM
GI50 [14]: 6.98 µM
TGI [14]: 21.1 µM
GI50 [15]: 9.57 µM
TGI [15]: 20.7 µM
GI50 [16]: 18.4 µM
TGI [16]: > 50 µM
GI50 [17]: 17.9 µM
TGI [17]: > 50 µM
GI50 [18]: 10.3 µM
TGI [18]: 25.1 µM
GI50 [19]: 15.8 µM
TGI [19]: > 50 µM
GI50 [20]: 16.7 µM
TGI [20]: 49 µM
GI50 [21]: 15.2 µM
TGI [21]: 35.4 µM
GI50 [22]: 10.9 µM
TGI [22]: 28.4 µM
GI50 [23]: 7.53 µM
TGI [23]: 19.5 µM
GI50 [24]: 9.16 µM
TGI [24]: 23.5 µM
GI50 [25]: 11.5 µM
TGI [25]: 31.7 µM
GI50 [26]: 20.4 µM
TGI [26]: > 50 µM
GI50 [27]: 11.6 µM
TGI [27]: 28.5 µM
GI50 [28]: 18.5 µM
TGI [28]: > 50 µM
GI50 [29]: 12.8 µM
TGI [29]: 39.4 µM
GI50 [30]: 13.9 µM
TGI [30]: 49.7 µM
GI50 [31]: 8.64 µM
TGI [31]: 16.9 µM
GI50 [32]: 7.45 µM
TGI [32]: 17.4 µM
GI50 [33]: 17.2 µM
TGI [33]: > 50 µM
GI50 [34]: 12.5 µM
TGI [34]: 36.3 µM
GI50 [35]: 8.84 µM
TGI [35]: 22.4 µM
GI50 [36]: 17.8 µM
TGI [36]: > 50 µM
GI50 [37]: 8.42 µM
TGI [37]: 20.1 µM
GI50 [38]: 12.3 µM
TGI [38]: 35.7 µM
GI50 [39]: 10.2 µM
TGI [39]: 28.2 µM
GI50 [40]: 8.64 µM
TGI [40]: 20.3 µM
GI50 [41]: 10.1 µM
TGI [41]: 23.4 µM
GI50 [42]: 9.73 µM
TGI [42]: 24 µM
GI50 [43]: 10.9 µM
TGI [43]: 24.3 µM
GI50 [44]: 8.92 µM
TGI [44]: 22.1 µM
GI50 [45]: 9.86 µM
TGI [45]: 27.8 µM
GI50 [46]: 13.5 µM
TGI [46]: 42.2 µM
GI50 [47]: 9.88 µM
TGI [47]: 20.1 µM
GI50 [48]: 10.6 µM
TGI [48]: 32.8 µM
GI50 [49]: 6.99 µM
TGI [49]: 18.9 µM
GI50 [50]: 13.5 µM
TGI [50]: 33.5 µM
GI50 [51]: 10.7 µM
TGI [51]: 34.9 µM
GI50 [52]: 8.7 µM
TGI [52]: 17.7 µM
GI50 [53]: 7.99 µM
TGI [53]: 36.7 µM
GI50 [54]: 15.7 µM
TGI [54]: 48.5 µM
GI50 [55]: 15.2 µM
TGI [55]: > 50 µM
GI50 [56]: 17 µM
TGI [56]: > 50 µM

COc1ccc(NC(=O)c2ccc(C(F)(F)F)nc2Nc2ccc(Cl)cc2C)cc1Cl
GI50 [1]: 3.75 µM
TGI [1]: 14.2 µM
GI50 [2]: 2.42 µM
TGI [2]: 10.6 µM
GI50 [3]: 3.47 µM
TGI [3]: 16.5 µM
GI50 [4]: 7.99 µM
TGI [4]: 25.9 µM
GI50 [5]: 7.33 µM
TGI [5]: 21 µM
GI50 [6]: 2.9 µM
TGI [6]: 6.79 µM
GI50 [7]: 5.02 µM
TGI [7]: 17.5 µM
GI50 [57]: 4.67 µM
TGI [57]: 18.6 µM
GI50 [8]: 9.41 µM
TGI [8]: 23.1 µM
GI50 [9]: 6.9 µM
TGI [9]: 28.3 µM
GI50 [10]: 5.2 µM
TGI [10]: 16.9 µM
GI50 [11]: 9.62 µM
TGI [11]: 25.4 µM
GI50 [13]: 5.36 µM
TGI [13]: 18.6 µM
GI50 [14]: 15.7 µM
TGI [14]: 40.1 µM
GI50 [15]: 4.88 µM
TGI [15]: 18.6 µM
GI50 [16]: 3.57 µM
TGI [16]: 14 µM
GI50 [17]: 2.99 µM
TGI [17]: 14.4 µM
GI50 [18]: 1.64 µM
TGI [18]: 6.82 µM
GI50 [19]: 2.72 µM
TGI [19]: 10.7 µM
GI50 [20]: 3.15 µM
TGI [20]: 16.2 µM
GI50 [21]: 3.09 µM
TGI [21]: 15.1 µM
GI50 [22]: 3.08 µM
TGI [22]: 13.1 µM
GI50 [23]: 1.56 µM
TGI [23]: 4.93 µM
GI50 [24]: 2.9 µM
TGI [24]: 12.1 µM
GI50 [25]: 5.4 µM
TGI [25]: 21.3 µM
GI50 [26]: 6.47 µM
TGI [26]: 23.9 µM
GI50 [27]: 10.7 µM
TGI [27]: 23.9 µM
GI50 [28]: 3.18 µM
TGI [28]: 17.5 µM
GI50 [29]: 3.84 µM
TGI [29]: 17.4 µM
GI50 [30]: 2.07 µM
TGI [30]: 4.88 µM
GI50 [31]: 9.01 µM
TGI [31]: 23.5 µM
GI50 [32]: 3.53 µM
TGI [32]: 15.4 µM
GI50 [33]: 5.45 µM
TGI [33]: 19.7 µM
GI50 [34]: 3.17 µM
TGI [34]: 14.9 µM
GI50 [35]: 2.32 µM
TGI [35]: 12.7 µM
GI50 [36]: 4.09 µM
TGI [36]: 14.7 µM
GI50 [37]: 3.35 µM
TGI [37]: 14.3 µM
GI50 [39]: 7.67 µM
TGI [39]: 24.3 µM
GI50 [40]: 4.39 µM
TGI [40]: 17.8 µM
GI50 [41]: 10.8 µM
TGI [41]: 24 µM
GI50 [42]: 5.39 µM
TGI [42]: 20.6 µM
GI50 [43]: 7.14 µM
TGI [43]: 22.3 µM
GI50 [44]: 4.41 µM
TGI [44]: 18.9 µM
GI50 [45]: 3.53 µM
TGI [45]: 12.1 µM
GI50 [46]: 7.12 µM
TGI [46]: 20.5 µM
GI50 [47]: 6.03 µM
TGI [47]: 28 µM
GI50 [48]: 2.58 µM
TGI [48]: 28.9 µM
GI50 [58]: 2.4 µM
TGI [58]: 5.37 µM
GI50 [49]: 3.96 µM
TGI [49]: 13.5 µM
GI50 [50]: 17.3 µM
TGI [50]: 41.6 µM
GI50 [51]: 12.5 µM
TGI [51]: 26.8 µM
GI50 [52]: 4.09 µM
TGI [52]: 18.7 µM
GI50 [53]: 1.72 µM
TGI [53]: 6.46 µM
GI50 [54]: 4.23 µM
TGI [54]: 14.9 µM
GI50 [55]: 2.42 µM
TGI [55]: 13.1 µM
GI50 [56]: 3.65 µM
TGI [56]: 14 µM
